Data from ChEMBL document CHEMBL1143095, “Discovery of [(3-bromo-7-cyano-2-naphthyl)(difluoro)methyl]phosphonic acid, a potent and orally active small molecule PTP1B inhibitor” (Bioorg Med Chem Lett, 2008).
pIC50, pKi: −log10 of the molar value.

What was measured:
[1] = Cmax in mouse plasma at 20 mg/kg, po after 2 hrs; assay type: ADME, organism-based; design: dose 20 mg/kg, route oral
[2] = molecular target: T1, Receptor-type tyrosine-protein phosphatase C (Homo sapiens, UniProt P08575); assay: Inhibition of CD45 by fluorescein diphosphate assay
T1 sequence (P08575 whole entry): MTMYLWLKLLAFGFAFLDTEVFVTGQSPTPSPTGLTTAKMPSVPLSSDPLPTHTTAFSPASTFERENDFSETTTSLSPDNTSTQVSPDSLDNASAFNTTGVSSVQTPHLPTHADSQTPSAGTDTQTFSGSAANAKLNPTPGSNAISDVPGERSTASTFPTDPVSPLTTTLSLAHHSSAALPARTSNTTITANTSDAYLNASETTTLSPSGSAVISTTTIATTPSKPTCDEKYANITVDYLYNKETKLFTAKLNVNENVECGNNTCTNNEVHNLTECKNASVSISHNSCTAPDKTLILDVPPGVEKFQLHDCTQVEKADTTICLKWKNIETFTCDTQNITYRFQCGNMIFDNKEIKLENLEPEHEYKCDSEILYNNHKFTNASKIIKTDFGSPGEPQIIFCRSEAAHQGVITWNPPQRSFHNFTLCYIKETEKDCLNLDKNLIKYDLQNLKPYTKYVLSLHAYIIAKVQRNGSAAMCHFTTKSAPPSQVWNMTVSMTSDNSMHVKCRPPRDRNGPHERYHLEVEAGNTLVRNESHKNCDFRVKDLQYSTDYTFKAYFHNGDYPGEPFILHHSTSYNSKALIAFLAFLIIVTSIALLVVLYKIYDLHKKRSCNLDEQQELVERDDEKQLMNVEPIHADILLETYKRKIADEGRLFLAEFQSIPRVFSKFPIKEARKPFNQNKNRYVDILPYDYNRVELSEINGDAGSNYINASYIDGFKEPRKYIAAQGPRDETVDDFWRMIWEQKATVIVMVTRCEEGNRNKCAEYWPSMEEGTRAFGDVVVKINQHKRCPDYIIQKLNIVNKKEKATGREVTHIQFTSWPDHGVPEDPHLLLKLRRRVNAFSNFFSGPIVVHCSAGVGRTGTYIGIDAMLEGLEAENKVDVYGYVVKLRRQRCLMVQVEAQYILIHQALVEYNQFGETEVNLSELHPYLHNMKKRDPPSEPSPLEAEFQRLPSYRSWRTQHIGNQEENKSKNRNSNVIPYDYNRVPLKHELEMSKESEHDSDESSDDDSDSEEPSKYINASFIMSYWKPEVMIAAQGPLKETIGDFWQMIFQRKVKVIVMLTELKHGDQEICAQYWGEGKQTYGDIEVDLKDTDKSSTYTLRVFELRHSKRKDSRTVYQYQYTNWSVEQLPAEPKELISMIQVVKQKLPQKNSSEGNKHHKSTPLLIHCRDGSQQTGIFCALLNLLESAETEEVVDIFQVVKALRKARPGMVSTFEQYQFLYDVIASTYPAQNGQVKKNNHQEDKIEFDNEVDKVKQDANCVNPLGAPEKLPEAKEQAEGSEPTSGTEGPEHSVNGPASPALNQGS

[3] = molecular target: T2, Tyrosine-protein phosphatase non-receptor type 1 (Homo sapiens, UniProt P18031); assay: Inhibition of PTP1B by fluorescein diphosphate assay
T2 sequence (P18031 whole entry): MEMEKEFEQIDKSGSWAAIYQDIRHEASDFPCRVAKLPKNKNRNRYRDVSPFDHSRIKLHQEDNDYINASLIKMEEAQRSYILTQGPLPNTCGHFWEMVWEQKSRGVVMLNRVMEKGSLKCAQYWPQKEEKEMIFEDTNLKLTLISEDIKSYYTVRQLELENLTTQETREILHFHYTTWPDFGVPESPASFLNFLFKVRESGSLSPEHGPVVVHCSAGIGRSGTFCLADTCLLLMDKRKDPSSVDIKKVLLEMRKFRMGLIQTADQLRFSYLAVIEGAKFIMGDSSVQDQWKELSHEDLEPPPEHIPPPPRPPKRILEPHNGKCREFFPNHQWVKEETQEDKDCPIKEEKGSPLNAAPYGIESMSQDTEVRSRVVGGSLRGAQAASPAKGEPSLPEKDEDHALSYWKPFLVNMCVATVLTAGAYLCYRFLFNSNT

[4] = Cmax in C57BL/6 mouse plasma at 10 mg/kg; assay type: ADME, organism-based; design: dose 10 mg/kg
[5] = Elimination half life in DIO mouse at 5 mg/kg, iv and 20 mg/kg, po; assay type: ADME, organism-based; details: in vivo
[6] = Cmax in rat at 5 mg/kg, iv and 20 mg/kg, po; assay type: ADME, organism-based; details: in vivo
[7] = Clearance in rat at 5 mg/kg, iv and 20 mg/kg, po; assay type: ADME, organism-based; details: in vivo
[8] = Oral bioavailability in Squirrel monkey at 5 mg/kg, iv and 10 mg/kg, po; assay type: ADME, organism-based, Saimiri sciureus; details: in vivo
[9] = Elimination half life in Squirrel monkey at 5 mg/kg, iv and 10 mg/kg, po; assay type: ADME, organism-based, Saimiri sciureus; details: in vivo
[10] = Clearance in Squirrel monkey at 5 mg/kg, iv and 10 mg/kg, po; assay type: ADME, organism-based, Saimiri sciureus; details: in vivo
[11] = Clearance in DIO mouse at 5 mg/kg, iv and 20 mg/kg, po; assay type: ADME, organism-based; details: in vivo
[12] = Drug level in rat at 5 mg/kg, iv and 20 mg/kg, po after 24 hrs; assay type: ADME, organism-based; details: in vivo, read-out: Drug uptake
[13] = Oral bioavailability in rat at 5 mg/kg, iv and 20 mg/kg, po; assay type: ADME, organism-based; details: in vivo
[14] = Elimination half life in rat at 5 mg/kg, iv and 20 mg/kg, po; assay type: ADME, organism-based; details: in vivo
[15] = Drug level in DIO mouse at 5 mg/kg, iv and 20 mg/kg, po after 24 hrs; assay type: ADME, organism-based; details: in vivo, read-out: Drug uptake
[16] = Cmax in DIO mouse at 5 mg/kg, iv and 20 mg/kg, po; assay type: ADME, organism-based; details: in vivo
[17] = Drug level in Squirrel monkey at 5 mg/kg, iv and 10 mg/kg, po after 24 hrs; assay type: ADME, organism-based, Saimiri sciureus; details: in vivo, read-out: Drug uptake
[18] = organism: Mus musculus; assay: Inhibition of glucose excursion in DIO mouse glucose challenged 2 hrs before the oral glucose tolerance test; assay type: functional
[19] = Oral bioavailability in DIO mouse at 5 mg/kg, iv and 20 mg/kg, po; assay type: ADME, organism-based; details: in vivo
[20] = Cmax in Squirrel monkey at 5 mg/kg, iv and 10 mg/kg, po; assay type: ADME, organism-based, Saimiri sciureus; details: in vivo
[21] = tested on: Mus musculus; assay: Inhibition of glucose excursion in DIO mouse glucose challenged 2 hrs before the test at 1 mg/kg by oral glucose tolerance test; assay type: functional
[22] = tested on: Mus musculus; assay: Inhibition of glucose excursion in DIO mouse glucose challenged 2 hrs before the test at 10 mg/kg by oral glucose tolerance test; assay type: functional
[23] = tested on: Mus musculus; assay: Inhibition of glucose excursion in DIO mouse glucose challenged 2 hrs before the test at 3 mg/kg by oral glucose tolerance test; assay type: functional
[24] = Cmax in rat plasma at 20 mg/kg; assay type: ADME, organism-based; design: dose 20 mg/kg
[25] = Oral bioavailability in rat; assay type: ADME, organism-based; details: in vivo
[26] = Elimination half life in rat plasma; assay type: ADME, organism-based

SMILES | pIC50 [2] | pIC50 [3] | other results
N#CCc1ccc2cc(Br)c(C(F)(F)P(=O)(O)O)cc2c1 | 4.57 | 7.05 | Cmax [1]: 6 µM
CC(Cc1ccc(C(F)(F)P(=O)(O)O)cc1)(c1ccccc1)n1nnc2ccccc21 (centres undefined) | 4.30 | 7.80 | –
O=C(Nc1ccccc1)c1ccc2cc(Br)c(C(F)(F)P(=O)(O)O)cc2n1 | < 4.30 | 7.22 | –
CNC(=O)c1ccc2cc(Br)c(C(F)(F)P(=O)(O)O)cc2n1 | < 4.30 | 5.90 | –
CS(=O)(=O)Cc1ccc2cc(Br)c(C(F)(F)P(=O)(O)O)cc2c1 | < 4.30 | 5.89 | –
NC(=O)c1ccc2cc(Br)c(C(F)(F)P(=O)(O)O)cc2n1 | < 4.30 | 6.60 | Cmax [4]: 0.3 µM
Cc1ccc2cc(Br)c(C(F)(F)P(=O)(O)O)cc2c1 | < 4.30 | 6.48 | –
N#Cc1ccc2cc(Br)c(C(F)(F)P(=O)(O)O)cc2c1 | < 4.30 | – | half-life [5]: 6 h; Cmax [6]: 75.6 µM; clearance [7]: 1.8 mL/h/kg; bioavailability [8]: 2%; half-life [9]: > 30 h; clearance [10]: 1.2 mL/h/kg; clearance [11]: 42.6 mL/h/kg; concentration at 24 h [12]: 45.3 µM; bioavailability [13]: 4%; half-life [14]: > 17 h; concentration at 24 h [15]: 9 µM; Cmax [16]: 17.4 µM; concentration at 24 h [17]: 19 µM; ED50 [18]: 0.8 mg/kg; bioavailability [19]: 24%; Cmax [20]: 24 µM; inhibition in vivo at 1 mg/kg [21]: 60%; inhibition in vivo at 10 mg/kg [22]: 100%; inhibition in vivo at 3 mg/kg [23]: 80%
N#Cc1ccc2cc(C(F)(F)P(=O)(O)O)c(Br)cc2c1 | < 4.30 | 6.51 | –
COCc1ccc2cc(Br)c(C(F)(F)P(=O)(O)O)cc2c1 | < 4.30 | 6.29 | –
O=C(O)c1cccc(/C=C/c2ccc3cc(Br)c(C(F)(F)P(=O)(O)O)cc3n2)c1 | 4.42 | 8.15 | –
O=P(O)(O)C(F)(F)c1cc2nc(/C=C/c3ccccc3)ccc2cc1Br | < 4.30 | 6.80 | –
O=C(NCc1ccccc1)c1ccc2cc(Br)c(C(F)(F)P(=O)(O)O)cc2n1 | < 4.30 | 7.35 | –
Cc1ccc2cc(Br)c(C(F)(F)P(=O)(O)O)cc2n1 | < 4.30 | 4.85 | Cmax [24]: 43.3 µM; bioavailability [25]: 5%; half-life [26]: > 8 h
O=C(Nc1cccc(F)c1)c1ccc2cc(Br)c(C(F)(F)P(=O)(O)O)cc2n1 | < 4.30 | 7.57 | –
CC(=O)NCc1ccc2cc(Br)c(C(F)(F)P(=O)(O)O)cc2c1 | < 4.30 | 5.82 | –
Cc1ccc2ccc(C(F)(F)P(=O)(O)O)cc2n1 | < 4.30 | < 4.30 | –
O=C(c1ccccc1)C(Cc1ccc(C(F)(F)P(=O)(O)O)c(Br)c1)c1ccccc1 (centres undefined) | < 4.30 | – | –
O=P(O)(O)C(F)(F)c1cc2ccccc2cc1Br | – | – | pKi [3]: 3.75
